{"source": "patent US20100093745A1", "about": "“THERAPEUTIC AGENT OR PROPHYLACTIC AGENT FOR DEMYELINATING DISEASE COMPRISING AMINO ALCOHOL DERIVATIVE AS ACTIVE INGREDIENT” (priority 2007, published 2010)", "system": "Mouse Experimental Autoimmune Encephalomyelitis (EAE) Model", "test": "Effect on a mouse experimental autoimmune encephalomyelitis (EAE) model", "assay_type": "in vivo", "conditions": "MBP-immunized mice, oral, once a day from the 5th day to 41st day after the immunization", "data": [{"smiles": "C[C@](N)(CO)CCCc1ccc(Sc2cccc(C(F)(F)F)c2)cc1Cl.Cl", "note": "[compound 27, (R)-2-amino-5-[2-chloro-4-(3-trifluoromethylphenylthio)phenyl]-2-methylpentan-1-ol hydrochloride]", "values": [{"measurement": "administration dose showing maximum reaction (onset inhibition)", "value": 0.3, "unit": "mg/kg"}, {"measurement": "onset of disease (clinical symptom score, total score)", "setting": "0.01 to 0.3 mg/kg, FIG. 1 and FIG. 2", "value": "inhibited the onset of disease dose-dependently"}]}]}
